SMILES strings stand for the structures. In brackets after ≈: the same amount, converted by molar mass.

Data set [1] is described as follows: Acute toxicity in mice, intravenous. Format: in vivo. The settings on record: intravenous at the tail, ICR strain male mice, group of 5; 50% solution in polyethylene glycol 300. On the procedure: Each of the compounds of Examples 10, 12, 19, 79, 142 and 146 was administered to a group of 5 ICR strain male mice (weight: 29-31 g) intravenously at the tails, and the acute toxicity of each compound was examined.
Each compound was administered in the form of a 50% solution in polyethylene glycol 300.

Data set [2] has as its system Candida albicans ON28. The experiment in a line: Therapeutic effect, oral, mice infected with Candida albicans ON28 (3), Table 2c. Format: in vivo, ICR strain male mice infected with Candida albicans ON28. The settings on record: average survival days of Ketoconazole taken as 100; Candida albicans 5.7×10^6 cells/mouse i.v.; 0.1 mg/mouse oral, 2 hours after infection; 10 days observation; 10 mice. As for the experimental part:
(3) The therapeutic effects of the present compounds, when they were administered orally, were examined using mice infected with Candida albicans ON28.
Candida albicans ON28 was injected in a proportion of 5.7×10^6 cells/mouse to a group of 10 ICR strain male mice (weight: 19-21 g) intravenously at the tails, whereby the mice were infected with the fungi. […] The relative therapeutic index of the test compound was determined from the average survival days.
The results are shown in Table 2c, in which the relative therapeutic index of each test compound is a value calculated by taking the average survival days Ketoconazole as 100.

The test system of data set [3] is Aspergillus fumigatus IFO8868. Nature of the data set: Minimum inhibitory concentration (MIC) against Aspergillus fumigatus IFO8868. Format: cell-based. Conditions: IFO8868, 72 h, TC broth medium, 10^4 spores/ml, 37° C., 3 days. On the procedure:
(§1) MIC was determined in accordance with the method of M. S. Marriott [25th Interscience Conference on Antimicrobial Agents and Chemotherapy, p. 243 (1985)].
(§2) Candida albicans ON28 was cultured in a sabouraud dextrose agar medium containing 10 g of neopeptone, 20 g of glucose and 15 g of agar per liter, at 30° C. for 1-2 days. The yeast cells were suspended in sterile distilled water. Separately, Aspergillus fumigatus IFO8868 was cultured in a potato dextrose agar medium (manufactured by Nissui Pharmaceutical Co., Ltd.) at 30° C. until the conidia were formed abundantly. The formed conidia were suspended in a sterile physiological saline containing 0.1% of Tween 80. Each of the Candida albicans suspension and the Aspergillus fumigatus suspension was inoculated into a TC broth medium (containing 1.17 g of an yeast carbon base, 0.25 g of ammonium sulfate, 2.0 ml of a 50-fold concentrate of L-glutamic acid-containing MEM amino acid, 20 ml of a 0.5M phosphate buffer of pH 7.5 and 1.33 ml of 7.5% sodium hydrogencarbonate per 100 ml) containing a test compound, so that the final fungal amount became 10^4 spores/ml. Then, culture was conducted at 37° C. for 3 days. Thereafter, the growth of fungi was examined. The minimum concentration of test compound at which the growth of fungi had been inhibited, was taken as MIC (μg/ml).

Data set [4] relates to Aspergillus fumigatus IFO8868. The experiment in a line: Therapeutic effect, oral, mice infected with Aspergillus fumigatus IFO8868 (4), Table 2d. Format: in vivo. The settings on record: average survival days of Ketoconazole taken as 100; Aspergillus fumigatus 5.8×10^6 cells/mouse i.v.; 0.8 mg/mouse oral, 2 hours after infection and once daily for six consecutive days; 10 days observation; 10 mice. On the procedure:
(4) The therapeutic effects of the present compounds, when they were administered orally, were examined using mice infected with Aspergillus fumigatus IFO8868.
Aspergillus fumigatus IFO8868 was injected in a proportion of 5.8×10^6 cells/mouse to a group of 10 ICR strain male mice (weight: 19-21 g) intravenously at the tails, whereby the mice were infected with the fungi. […] The relative therapeutic index of the test compound was determined from the average survival days.
The results are shown in Table 2d, in which the relative therapeutic index of each test compound is a value calculated by taking the average survival days of Ketoconazole as 100.

Data set [5] has as its system Candida albicans ON28. The experiment in a line: Minimum inhibitory concentration (MIC) against Candida albicans ON28. The class given is cell-based. Conditions: ON28, 72 h, TC broth medium, 10^4 spores/ml, 37° C., 3 days. On the procedure: as §1, §2
For data set [6], the system named is Candida albicans ON28. Nature of the data set: Therapeutic effect, oral, mice infected with Candida albicans ON28 (1), Table 2a. The class given is in vivo, ICR strain male mice infected with Candida albicans ON28. The settings on record: average survival days of Ketoconazole taken as 100; Candida albicans 3.5×10^6 cells/mouse i.v.; 0.1 mg/mouse oral, 2 hours after infection; 10 days observation; 5 mice. On the procedure: (1) The therapeutic effects of the present compounds, when they were administered orally, were examined using mice infected with Candida albicans ON28.
Candida albicans ON28 was injected in a proportion of 3.5×10^6 cells/mouse to a group of 5 ICR strain male mice (weight: 19-21 g) intravenously at the tails, whereby the mice were infected with the fungi. […] The relative therapeutic index of the test compound was determined from the average survival days.
The results are shown in Table 2a, in which the relative therapeutic index of each test compound is a value calculated by taking the average survival days Ketoconazole as 100.

Data set [7] deals with Aspergillus fumigatus IFO8868. Nature of the data set: Therapeutic effect, oral, mice infected with Aspergillus fumigatus IFO8868 (2), Table 2b. Format: in vivo. The settings on record: average survival days of Ketoconazole taken as 100; Aspergillus fumigatus 3.6×10^6 cells/mouse i.v.; 0.8 mg/mouse oral, 2 hours after infection; 10 days observation; 5 mice. As for the experimental part: (2) The therapeutic effects of the present compounds, when they were administered orally, were examined using mice infected with Aspergillus fumigatus IFO8868.
Aspergillus fumigatus IFO8868 was injected in a proportion of 3.6×10^6 cells/mouse to a group of 5 ICR strain male mice (weight: 19-21 g) intravenously at the tails, whereby the mice were infected with the fungi. […] The relative therapeutic index of the test compound was determined from the average survival days.
The results are shown in Table 2b, in which the relative therapeutic index of each test compound is a value calculated by taking the average survival days of Ketoconazole as 100.

With `NC(=O)C(F)(F)C(O)(Cn1cncn1)c1ccc(F)cc1F` (single isomer, unassigned) [Example 142], the “dose up to which no dead case occurred (acute toxicity)” value (“dose up to which no dead case occurred” below) in data set [1] is listed as at least 200 mg/kg. Moreover, the values for the Relative therapeutic index (with Candida albicans ON28 [2]; in data set [4]) were 405 and 216, respectively. For the same compound, the figures for the minimum inhibitory concentration (MIC) (in data set [3]; with Candida albicans ON28 [5]) were 100 µg/mL (≈ 314 µM) and 0.78 µg/mL (≈ 2.45 µM), respectively.
For `NC(=O)C(F)(F)C(O)(Cn1cncn1)c1ccc(F)cc1Cl` (single isomer, unassigned) [Example 146] the same measures were at least 200 mg/kg, 418, 500, 50 µg/mL (≈ 149 µM) and 0.39 µg/mL (≈ 1.17 µM).
For the compound `NC(=O)C(F)(F)C(O)(Cn1cncn1)c1ccc(F)cc1F` (centres unmarked) [Example 10, 3-(2,4-difluorophenyl)-2,2-difluoro-3-hydroxy-4-(1H-1,2,4-triazol-1-yl)butanamide], the “dose up to which no dead case occurred” value in data set [1] was at least 200 mg/kg. For the same compound, the Relative therapeutic index with Candida albicans ON28 [2] was found to be 414; in data set [4], 200.
For the compound `CCNC(=O)C(F)(F)C(O)(Cn1cncn1)c1ccc(F)cc1F` (centres unmarked) [Example 12], the Relative therapeutic index came out at 440 in the data set on Candida albicans ON28 [6], 150 in data set [7], 445 in the data set with Candida albicans ON28 [2] and 237 in data set [4]. The “dose up to which no dead case occurred” value in data set [1] is listed as at least 100 mg/kg. The results for the MIC (in data set [3]; in the data set on Candida albicans ON28 [5]) were 25 µg/mL (≈ 72.2 µM) and 0.2 µg/mL (≈ 0.578 µM), respectively.
`O=C(NC1CC1)C(F)(F)C(O)(Cn1cncn1)c1ccc(F)cc1F` (centres unmarked) [Example 19]: the Relative therapeutic index with Candida albicans ON28 [6] is 625; in data set [7] it was 164; in the data set on Candida albicans ON28 [2], 405; in data set [4] it was 253. Moreover, the “dose up to which no dead case occurred” value in data set [1] is given as at least 100 mg/kg. In addition, the MIC came to 50 µg/mL (≈ 140 µM) in data set [3] and 0.1 µg/mL (≈ 0.279 µM) in the data set with Candida albicans ON28 [5].
On to `O=C(NC1CC1)C(F)(F)C(O)(Cn1cncn1)c1ccc(F)cc1Cl` (centres unmarked) [Example 30], for which the Relative therapeutic index in the data set on Candida albicans ON28 [6] is recorded as 355; in data set [7] it was 207; in the data set with Candida albicans ON28 [2] it was 414; in data set [4] it was 358. Besides, the MIC turned out to be 12.5 µg/mL (≈ 33.4 µM) in data set [3] and 0.2 µg/mL (≈ 0.534 µM) against Candida albicans ON28 [5].
As to `NC(=O)C(F)(F)C(O)(Cn1cncn1)c1ccc(F)cc1Cl` (centres unmarked) [Example 79], the “dose up to which no dead case occurred” value in data set [1] was at least 200 mg/kg. Moreover, the Relative therapeutic index amounted to 405 in the data set with Candida albicans ON28 [2] and 400 in data set [4]. In addition, the results for the MIC (in data set [3]; with Candida albicans ON28 [5]) were 50 µg/mL (≈ 149 µM) and 0.78 µg/mL (≈ 2.33 µM), respectively.

Source of the values: US5605921A, “Triazole derivatives and salts thereof, and antifungal agent containing the same” (Toyama Chemical Co., Ltd., priority 1991, dated 1997).
